Test results published in patent US9238796B2, “Cell growth-promoting peptide and use thereof” (TOAGOSEI CO., LTD., priority 2010, dated 2016).
No end group written: not given here.

System: Rat bone marrow-derived stem cells (mesenchymal stem cells)
Assay: Evaluation of cell growth-promoting activity, WST-8 colorimetric method (Example 2)
Format: cell-based
Conditions: day 0; WST-8 absorbance at 450 nm; peptide approximately 2 μM, bFGF 10 ng/mL
Description: (§1) Experimental sections were set up that used the cell growth-promoting peptides obtained in Example 1 (samples 1 to 21) as a cell growth promoter and that used a commercially available bFGF as a cell growth promoter as a comparative example. For the control, a peptide-free section (the bFGF was also not added) was set up.
(§2) The details of the evaluation testing are provided below. Each synthesized sample peptide was dissolved in PBS (phosphate-buffered physiological saline) to prepare a stock solution with a peptide concentration of 1 mM.
(§3) Rat bone marrow-derived stem cells (mesenchymal stem cells) were used as the test cells. Specifically, the test stem cells were cultured by passage on Dulbecco's MEM medium (DMEM medium: Gibco product) containing 10% fetal bovine serum (FBS: Gibco product), 2 mM of L-glutamine, 50 unit/mL of penicillin, and 50 μg/mL of streptomycin. From the second passage to the fourth passage (passages 2 to 4) were used in this evaluation testing.
(§4) Thus, the test stem cells were preliminarily recovered by treatment with a 0.05% trypsin-0.53 mM EDTA solution; a test stem cell solution, prepared with the DMEM medium containing 10 ng/mL of bFGF to provide 1×10^4 cells/mL, was seeded to each well of a 96-well plate to provide a cell count of 1×10^3 per well; and pre-cultivation was carried out overnight. The amount of medium was brought to 100 μL per well for this.
(§5) The medium in each well was then exchanged for fresh medium to which a stock solution of a peptide selected from sample 1 to 21 had been added, so as to give a concentration of the peptide in each well of approximately 2 μM. For comparison, in some wells the medium in the well was exchanged for fresh medium to which a commercially available bFGF (product of PeproTech) had been added to give a concentration of 10 ng/mL (the bFGF experimental section in Table 3).
(§6) After the addition of the sample peptide or bFGF as indicated above, the 96-well plate was placed in a CO2 incubator and cultivation at quiescence was carried out at 37° C. under 5% CO2. Medium exchange was performed every other day. The exchange medium was the same as that used at the start of cultivation (i.e., the same sample peptide or bFGF was also added to the exchange medium as in the sample peptide addition section or bFGF addition section).
During this cultivation test, a “water-soluble tetrazolium salt (WST-8)” was added as a chromogenic reagent to some wells at the start of cultivation (day 0), at two days after the start of cultivation (day 2), and at four days after the start of cultivation (day 4). After incubation for 2 hours after the addition, the cell culture fluid to which the chromogenic reagent had been added was recovered. The extent of cell growth was evaluated by a colorimetric method in which, based on reduction of the tetrazolium salt, the absorbance (OD450) at a wavelength of 450 nm was measured.

Sequence	OD450 at the start of cultivation
PSLALLLLAAWTVRAGKKRTLRKNDRKKR (PSLALLLLAAWTVRAGKKRTLRKNDRKKR-NH2) [sample 2]	0.058
SLALLLLAAWTVRAGKKRTLRKNDRKKR (SLALLLLAAWTVRAGKKRTLRKNDRKKR-NH2) [sample 3]	0.058
WTVRAGKKRTLRKNDRKKR (WTVRAGKKRTLRKNDRKKR-NH2) [compound 12]	0.058

Same assay, conditions: day 2; WST-8 absorbance at 450 nm; peptide approximately 2 μM, bFGF 10 ng/mL

Sequence	OD450 after 2 days
PSLALLLLAAWTVRAGKKRTLRKNDRKKR (PSLALLLLAAWTVRAGKKRTLRKNDRKKR-NH2) [sample 2]	0.136
SLALLLLAAWTVRAGKKRTLRKNDRKKR (SLALLLLAAWTVRAGKKRTLRKNDRKKR-NH2) [sample 3]	0.139
WTVRAGKKRTLRKNDRKKR (WTVRAGKKRTLRKNDRKKR-NH2) [compound 12]	0.181

Same assay, conditions: day 4; WST-8 absorbance at 450 nm; peptide approximately 2 μM, bFGF 10 ng/mL

Sequence	OD450 after 4 days
PSLALLLLAAWTVRAGKKRTLRKNDRKKR (PSLALLLLAAWTVRAGKKRTLRKNDRKKR-NH2) [sample 2]	0.297
SLALLLLAAWTVRAGKKRTLRKNDRKKR (SLALLLLAAWTVRAGKKRTLRKNDRKKR-NH2) [sample 3]	0.293
WTVRAGKKRTLRKNDRKKR (WTVRAGKKRTLRKNDRKKR-NH2) [compound 12]	0.388

System: Rat bone marrow-derived stem cells (mesenchymal stem cells)
Assay: Evaluation of cell growth-promoting activity, WST-8 colorimetric method (Example 5)
Format: cell-based
Conditions: day 0; WST-8 absorbance at 450 nm; peptide approximately 2 μM, bFGF 10 ng/mL
Description: as §1, with “Example 4” for “Example 1”, “(samples 22” for “(samples 1”, “to 42)” for “to 21)”
as §2, §3, §4
as §5, with “sample 22” for “sample 1”, “to 42” for “to 21”, “Table 6).” for “Table 3).”
as §6
During this cultivation test, a “water-soluble tetrazolium salt (WST-8)” was added as a chromogenic reagent to some wells at the start of cultivation (day 0) and at four days after the start of cultivation (day 4). After incubation for 2 hours after the addition, the cell culture fluid to which the chromogenic reagent had been added was recovered. The extent of cell growth was evaluated by a colorimetric method in which, based on reduction of the tetrazolium salt, the absorbance (OD450) at a wavelength of 450 nm was measured.

Sequence	OD450 at the start of cultivation
AAWTARAGKKRTLRKNDRKKR (AAWTARAGKKRTLRKNDRKKR-NH2) [compound 31]	0.051
ALLLLAAWTARAGKKRTLRKNDRKKR (ALLLLAAWTARAGKKRTLRKNDRKKR-NH2) [compound 26]	0.051
AWTARAGKKRTLRKNDRKKR (AWTARAGKKRTLRKNDRKKR-NH2) [compound 32]	0.051
GLALLLLAAWTARAGKKRTLRKNDRKKR (GLALLLLAAWTARAGKKRTLRKNDRKKR-NH2) [compound 24]	0.051
LAAWTARAGKKRTLRKNDRKKR (LAAWTARAGKKRTLRKNDRKKR-NH2) [compound 30]	0.051
LALLLLAAWTARAGKKRTLRKNDRKKR (LALLLLAAWTARAGKKRTLRKNDRKKR-NH2) [compound 25]	0.051
LLAAWTARAGKKRTLRKNDRKKR (LLAAWTARAGKKRTLRKNDRKKR-NH2) [compound 29]	0.051
LLLAAWTARAGKKRTLRKNDRKKR (LLLAAWTARAGKKRTLRKNDRKKR-NH2) [compound 28]	0.051
LLLLAAWTARAGKKRTLRKNDRKKR (LLLLAAWTARAGKKRTLRKNDRKKR-NH2) [compound 27]	0.051
MLPGLALGKKRTLRKNDRKKR (MLPGLALGKKRTLRKNDRKKR-NH2) [compound 42]	0.051
MLPGLALLGKKRTLRKNDRKKR (MLPGLALLGKKRTLRKNDRKKR-NH2) [compound 41]	0.051
MLPGLALLLGKKRTLRKNDRKKR (MLPGLALLLGKKRTLRKNDRKKR-NH2) [compound 40]	0.051
MLPGLALLLLAAGKKRTLRKNDRKKR (MLPGLALLLLAAGKKRTLRKNDRKKR-NH2) [sample 37]	0.051
MLPGLALLLLAAWGKKRTLRKNDRKKR (MLPGLALLLLAAWGKKRTLRKNDRKKR-NH2) [compound 36]	0.051
MLPGLALLLLAAWTAGKKRTLRKNDRKKR (MLPGLALLLLAAWTAGKKRTLRKNDRKKR-NH2) [compound 34]	0.051
MLPGLALLLLAAWTARAGKKRTLRKNDRKKR (MLPGLALLLLAAWTARAGKKRTLRKNDRKKR-NH2) [sample 22]	0.051

Same assay, conditions: day 4; WST-8 absorbance at 450 nm; peptide approximately 2 μM, bFGF 10 ng/mL

Sequence	OD450 after 4 days
AAWTARAGKKRTLRKNDRKKR (AAWTARAGKKRTLRKNDRKKR-NH2) [compound 31]	0.401
ALLLLAAWTARAGKKRTLRKNDRKKR (ALLLLAAWTARAGKKRTLRKNDRKKR-NH2) [compound 26]	0.509
AWTARAGKKRTLRKNDRKKR (AWTARAGKKRTLRKNDRKKR-NH2) [compound 32]	0.433
GLALLLLAAWTARAGKKRTLRKNDRKKR (GLALLLLAAWTARAGKKRTLRKNDRKKR-NH2) [compound 24]	0.327
LAAWTARAGKKRTLRKNDRKKR (LAAWTARAGKKRTLRKNDRKKR-NH2) [compound 30]	0.413
LALLLLAAWTARAGKKRTLRKNDRKKR (LALLLLAAWTARAGKKRTLRKNDRKKR-NH2) [compound 25]	0.319
LLAAWTARAGKKRTLRKNDRKKR (LLAAWTARAGKKRTLRKNDRKKR-NH2) [compound 29]	0.434
LLLAAWTARAGKKRTLRKNDRKKR (LLLAAWTARAGKKRTLRKNDRKKR-NH2) [compound 28]	0.532
LLLLAAWTARAGKKRTLRKNDRKKR (LLLLAAWTARAGKKRTLRKNDRKKR-NH2) [compound 27]	0.511
MLPGLALGKKRTLRKNDRKKR (MLPGLALGKKRTLRKNDRKKR-NH2) [compound 42]	0.346
MLPGLALLGKKRTLRKNDRKKR (MLPGLALLGKKRTLRKNDRKKR-NH2) [compound 41]	0.311
MLPGLALLLGKKRTLRKNDRKKR (MLPGLALLLGKKRTLRKNDRKKR-NH2) [compound 40]	0.487
MLPGLALLLLAAGKKRTLRKNDRKKR (MLPGLALLLLAAGKKRTLRKNDRKKR-NH2) [sample 37]	0.571
MLPGLALLLLAAWGKKRTLRKNDRKKR (MLPGLALLLLAAWGKKRTLRKNDRKKR-NH2) [compound 36]	0.288
MLPGLALLLLAAWTAGKKRTLRKNDRKKR (MLPGLALLLLAAWTAGKKRTLRKNDRKKR-NH2) [compound 34]	0.243
MLPGLALLLLAAWTARAGKKRTLRKNDRKKR (MLPGLALLLLAAWTARAGKKRTLRKNDRKKR-NH2) [sample 22]	0.241
